Results reported in US12162867B2, “Inhibitors of RNA helicase DHX9 and uses thereof” (ACCENT THERAPEUTICS, INC., priority 2022, dated 2024).
Where two headings read alike, the source gives them in different places.

Key:
Format in all cases: cell-based
LS411N cells = assay: DHX9 cellular proliferation assay (CellTiter-Glo), LS411N (CRC-MSI); settings: Homo sapiens, LS-411N, read-out: LS411N (CRC-MSI-H) Antiproliferative IC50
[1] = tested on: circBRIP1 in HCT116 cells; assay: DHX9 circBRIP1 cellular target engagement SYBR Green assay (qPCR); settings: Homo sapiens, HCT-116, circBRIP1, HCT116 cells, read-out: DHX9 Cellular Target Engagement EC50
NCI-H747 cells = assay: DHX9 cellular proliferation assay (CellTiter-Glo), NCI-H747 (CRC-MSS); settings: Homo sapiens
[2] = NCI-H747, NCI-H747, performed at Pharmaron, read-out: H747 (CRC-MSS) Antiproliferative IC50
[3] = LS411N, CRC-MSI-H, performed at Pharmaron
[4] = NCI-H747, NCI-H747, CRC-MSS, performed at Pharmaron, read-out: H747 (CRC-MSS) Antiproliferative IC50

Row | EC50 ([1]; ^+ SyBr assay was used) [nM] | IC50 (NCI-H747 cells; [2]) [nM] | EC50 ([1]; SyBr assay (marked ^+)) [nM] | IC50 (NCI-H747 cells; [4]) [nM] | Structure (SMILES) | IC50 (LS411N cells; LS411N, performed at Pharmaron) [nM] | IC50 (LS411N cells; [3]) [nM] | IC50 (LS411N cells) [nM] | IC50 (NCI-H747 cells; NCI-H747, read-out: H747 (CRC-MSS) Antiproliferative IC50) [nM]
1 | 42.1 | > 10000 | – | – | Cn1cc(C(=O)Nc2cc(Cl)cc(NS(C)(=O)=O)c2)cc1-c1ncccc1OCC1CC1 [Example 584] | 122 | – | – | –
2 | – | – | 35.8 | > 10000 | Cc1sc(C(=O)Nc2cc(Cl)cc(NS(C)(=O)=O)c2)cc1-c1ncccn1 [Example 22] | – | 115 | – | –
3 | 27.8 | > 10000 | – | – | COCc1ccc(-n2cc(C(=O)Nc3cc(Cl)cc(NS(C)(=O)=O)c3)cc2C)nc1 [Example 447] | 110 | – | – | –
4 | – | – | 378 | > 10000 | Cc1cccc(OCc2cccc(F)c2)c1-n1cc(C(=O)Nc2cc(Cl)cc(NS(C)(=O)=O)c2)cn1 [Example 255] | – | 74.3 | – | –
5 | 6.2 | > 10000 | – | – | CS(=O)(=O)Nc1cc(Cl)cc(NC(=O)c2cc(-c3ncccc3OCc3cncc(F)c3)cs2)c1 [Example 620, N-(3-chloro-5-methanesulfonamidophenyl)-4-{3-[(5-fluoropyridin-3-yl)methoxy]pyridin-2-yl}thiophene-2-carboxamide] | 26.4 | – | – | –
6 | – | – | 103 | 8560 | CS(=O)(=O)Nc1cc(Cl)cc(NC(=O)c2cnn(-c3ncc(F)cc3OCc3cccc(F)c3)c2)c1 [Example 202] | – | 111 | – | –
7 | – | – | 77.2 | > 10000 | CS(=O)(=O)Nc1cc(Cl)cc(NC(=O)c2cnn(-c3ccccc3OCc3cccc(F)c3)c2)c1 [Example 210] | – | 111 | – | –
8 | 89.5 | > 10000 | – | – | COc1cnn(-c2cc(C(=O)Nc3cc(Cl)cc(NS(C)(=O)=O)c3)sc2C)c1 [Example 436] | 272 | – | – | –
9 | – | – | 106 | 7150 | CS(=O)(=O)Nc1cc(F)cc(NC(=O)c2cc(-c3ncccc3OCc3ccccc3)cs2)c1 [Example 214] | – | 203 | – | –
10 | – | – | 48.2 | > 10000 | CS(=O)(=O)Nc1cc(Br)cc(NC(=O)c2cc(-c3ncccc3OCc3ccccc3)cs2)c1 [Example 32] | – | 101 | – | –
11 | – | – | 40.3 | > 10000 | Cc1sc(C(=O)Nc2cc(Cl)cc(NS(C)(=O)=O)c2)cc1-c1ncccc1O [Example 227] | – | 879 | – | –
12 | – | – | 84.8 | > 10000 | CS(=O)(=O)Nc1cc(Cl)cc(NC(=O)c2cc(-c3ccccn3)c(C3CC3)s2)c1 [Example 177, N-(3-chloro-5-(methylsulfonamido)phenyl)-5-cyclopropyl-4-(pyridin-2-yl)thiophene-2-carboxamide] | – | 251 | – | –
13 | – | – | 100 | 7220 | Cc1sc(C(=O)Nc2cc(Br)cc(NS(C)(=O)=O)c2)cc1-c1ccccc1O [Example 20] | – | 609 | – | –
14 | 40.2 | > 10000 | – | – | Cn1cc(C(=O)Nc2cc(Cl)cc(NS(C)(=O)=O)c2)cc1-c1ncc(N2CCCC2)cn1 [Example 520] | 118 | – | – | –
15 | – | – | 161 | > 10000 | CS(=O)(=O)Nc1cc(Cl)cc(NC(=O)c2cnn(-c3ncccc3OCc3cncc(F)c3)c2)c1 [Example 186] | – | 2440 | – | –
16 | – | – | 125 | > 10000 | CCOc1cnc(-n2cc(C(=O)Nc3cc(Cl)cc(NS(C)(=O)=O)c3)cc2C)nc1 [Example 208] | – | 218 | – | –
17 | – | – | > 10000 | > 10000 | CCc1cn2cc(C(=O)Nc3cc(Cl)cc(NS(C)(=O)=O)c3)ccc2n1 [Example 132] | – | > 10000 | – | –
18 | – | – | 60.9 | > 10000 | CS(=O)(=O)Nc1cc(Cl)cc(NC(=O)c2cc(-c3ncccn3)cs2)c1 [Example 26] | – | 217 | – | –
19 | 2 | > 10000 | – | – | Cc1sc(C(=O)Nc2cc(Cl)cc(NS(C)(=O)=O)c2)cc1-c1ncccc1OCc1cncc(F)c1 [Example 621] | 8.7 | – | – | –
20 | – | – | 32.6 | > 10000 | CNC(=O)c1sc(C(=O)Nc2cc(Cl)cc(NS(C)(=O)=O)c2)cc1-c1ncccc1OCc1ccccc1 [Example 212] | – | 202 | – | –
21 | 91.2 | > 10000 | – | – | CCOc1cnn(-c2cc(C(=O)Nc3cc(Cl)cc(NS(C)(=O)=O)c3)sc2C)c1 [Example 438] | 508 | – | – | –
22 | – | – | 107 | > 10000 | CS(=O)(=O)Nc1cc(Cl)cc(NC(=O)c2cnn(-c3ncccc3OCc3cccc(Cl)c3)c2)c1 [Example 70] | – | 375 | – | –
23 | – | – | 21.5 | > 10000 | Cc1cccnc1-c1csc(C(=O)Nc2cc(Br)cc(NS(C)(=O)=O)c2)c1 [Example 33] | – | 116 | – | –
24 | – | – | 23.7 | > 10000 | CS(=O)(=O)Nc1cc(Cl)cc(NC(=O)c2cc(-c3ncccc3OCc3cnco3)cs2)c1 [Example 215] | – | 118 | – | –

Row | EC50 ([1]; ^+ SyBr assay was used) [nM] | IC50 (NCI-H747 cells; [2]) [nM] | EC50 ([1]; SyBr assay (marked ^+)) [nM] | IC50 (NCI-H747 cells; [4]) [nM] | Structure (SMILES) | IC50 (LS411N cells; LS411N, performed at Pharmaron) [nM] | IC50 (LS411N cells; [3]) [nM] | IC50 (LS411N cells) [nM] | IC50 (NCI-H747 cells; NCI-H747, read-out: H747 (CRC-MSS) Antiproliferative IC50) [nM]
25 | 26.3 | 6940 | – | – | Cc1cc(C(=O)Nc2cc(Cl)cc(NS(C)(=O)=O)c2)cn1-c1ccc(N2CCC2)cn1 [Example 397] | 46.5 | – | – | –
26 | – | – | 37.2 | > 10000 | Cc1sc(C(=O)Nc2cc(Cl)cc(NS(C)(=O)=O)c2)cc1-c1ccc(F)cn1 [Example 35] | – | 76.8 | – | –
27 | 112 | > 10000 | – | – | CN1C(=O)N(c2csc(C(=O)Nc3cc(Cl)cc(NS(C)(=O)=O)c3)c2)C(=O)C1(C)C [Example 432] | 141 | – | – | –
28 | 33 | > 10000 | – | – | Cc1cc(C(=O)Nc2cc(Cl)cc(NS(C)(=O)=O)c2)cn1-c1ccc(N2CCC(F)(F)C2)cn1 [Example 396] | 122 | – | – | –
29 | – | – | 2630 | > 10000 | CS(=O)(=O)Nc1cc(Cl)cc(NC(=O)c2cc(-c3ccc(F)cn3)n(CC(F)F)c2)c1 [Example 286] | – | 131 | – | –
30 | – | – | 131 | > 10000 | Cc1cc(C(=O)Nc2cc(Cl)cc(NS(C)(=O)=O)c2)cn1-c1ccc(N2CCN(C(=O)C(C)C)CC2)cn1 [Example 283] | – | 92.3 | – | –
31 | – | – | 7 | > 10000 | Cn1cc(C(=O)Nc2cc(Cl)cc(NS(C)(=O)=O)c2)cc1-c1ncccc1OCc1cncc(F)c1 [Example 174, N-(3-chloro-5-(methylsulfonamido)phenyl)-5-(3-((5-fluoropyridin-3-yl)methoxy)pyridin-2-yl)-1-methyl-1H-pyrrole-3-carboxamide] | – | 33.3 | – | –
32 | – | – | 49.7 | > 10000 | CCS(=O)(=O)Nc1cc(Cl)cc(NC(=O)c2cc(-c3ncccn3)c(C)s2)c1 [Example 27] | – | 117 | – | –
33 | – | – | 47.6 | 4700 | Cn1cc(C(=O)Nc2cc(Cl)cc(NS(C)(=O)=O)c2)cc1-c1ccc(N2CC3(COC3)C2)cn1 [Example 277] | – | 66.7 | – | –
34 | 55.1 | > 10000 | – | – | CCOc1ccc(-c2cc(C(=O)Nc3cc(Cl)cc(NS(C)(=O)=O)c3)cn2C)nc1 [Example 572] | 144 | – | – | –
35 | – | – | 91.8 | 5690 | CCOc1ccc(-c2csc(C(=O)Nc3cc(Cl)cc(NS(C)(=O)=O)c3)c2)nc1 [Example 339] | – | 341 | – | –
36 | 67.4 | > 10000 | – | – | Cc1cc(C(=O)Nc2cc(Cl)cc(NS(C)(=O)=O)c2)cn1-c1ncc(N2CC(F)(F)C2)cn1 [Example 418] | 139 | – | – | –
37 | – | – | 30 | > 10000 | Cc1cc(C(=O)Nc2cc(Cl)cc(NS(C)(=O)=O)c2)cn1-c1ccc(N2CCOCC2)cn1 [Example 93] | – | 253 | – | –
38 | 41.1 | > 10000 | – | – | Cc1cc(C(=O)Nc2cc(Cl)cc(NS(C)(=O)=O)c2)cn1-c1ncc(N2CCC2)cn1 [Example 398] | 116 | – | – | –
39 | 21.2 | > 10000 | – | – | Cc1cc(C(=O)Nc2cc(Cl)cc(NS(C)(=O)=O)c2)cn1-c1ccc(N2CCCC2=O)cn1 [Example 410] | 373 | – | – | –
40 | – | – | > 10000 | > 10000 | CS(=O)(=O)Nc1cc(Cl)cc(NC(=O)c2cnn(-c3ncc(F)cc3CCc3cccc(F)c3)c2)c1 [Example 251] | – | 432 | – | –
41 | – | – | 297 | > 10000 | CS(=O)(=O)Nc1cc(Br)cc(NC(=O)c2cnn(-c3cc(C#N)ccc3OCc3ccccc3)c2)c1 [Example 67] | – | 1050 | – | –
42 | – | – | 74.2 | > 10000 | Cc1cc(C(=O)Nc2cc(Cl)cc(NS(C)(=O)=O)c2)cn1-c1ncccc1OCc1nccs1 [Example 280] | – | 116 | – | –
43 | – | – | 64.2 | > 10000 | Cc1cc(C(=O)Nc2cc(Cl)cc(NS(C)(=O)=O)c2)cn1-c1ccc(N2CC3(COC3)C2)cn1 [Example 276] | – | 61.7 | – | –
44 | – | – | 54.2 | > 10000 | Cc1sc(C(=O)Nc2cc(Br)cc(NS(C)(=O)=O)c2)cc1-c1ccccn1 [Example 23] | – | 53.1 | – | –
45 | – | – | 803 | > 10000 | COc1cc2cc(C(=O)Nc3cc(Cl)cc(NS(C)(=O)=O)c3)sc2cc1OC [Example 291] | – | 352 | – | –
46 | – | – | 13.6 | > 10000 | CS(=O)(=O)Nc1cc(Cl)cc(NC(=O)c2cc(-c3ncccc3OCc3cccnc3)cs2)c1 [Example 217] | – | 53.3 | – | –
47 | 105 | > 10000 | – | – | Cc1cc(C(=O)Nc2cc(Cl)cc(NS(C)(=O)=O)c2)cn1-c1ncccc1OCC1CC1 [Example 713] | 105 | – | – | –

Row | Structure (SMILES) | EC50 ([1]; ^+ SyBr assay was used) [nM] | IC50 (NCI-H747 cells; [2]) [nM] | EC50 ([1]; SyBr assay (marked ^+)) [nM] | IC50 (NCI-H747 cells; [4]) [nM] | IC50 (LS411N cells; LS411N, performed at Pharmaron) [nM] | IC50 (LS411N cells; [3]) [nM] | IC50 (LS411N cells) [nM] | IC50 (NCI-H747 cells; NCI-H747, read-out: H747 (CRC-MSS) Antiproliferative IC50) [nM]
48 | Cc1cccnc1-c1cc(C(=O)Nc2cc(Br)cc(NS(C)(=O)=O)c2)cn1C [Example 84, N-(3-bromo-5-(methylsulfonamido)phenyl)-1-methyl-5-(3-methylpyridin-2-yl)-1H-pyrrole-3-carboxamide] | – | – | 194 | – | – | – | 385 | > 10000
